Assay results as given in ChEMBL document CHEMBL4507268 (2021).

How the values were obtained:
Settings in all cases: Compound concentration 1.0 uM
[1] = molecular target: Protein kinase C alpha type (Homo sapiens) (UniProt P17252)
[2] = molecular target: Testis-specific serine/threonine-protein kinase 4 (Homo sapiens) (UniProt Q6SA08)
[3] = molecular target: T1, Bone morphogenetic protein receptor type-2 (Homo sapiens) (UniProt Q13873)
T1 sequence (whole entry): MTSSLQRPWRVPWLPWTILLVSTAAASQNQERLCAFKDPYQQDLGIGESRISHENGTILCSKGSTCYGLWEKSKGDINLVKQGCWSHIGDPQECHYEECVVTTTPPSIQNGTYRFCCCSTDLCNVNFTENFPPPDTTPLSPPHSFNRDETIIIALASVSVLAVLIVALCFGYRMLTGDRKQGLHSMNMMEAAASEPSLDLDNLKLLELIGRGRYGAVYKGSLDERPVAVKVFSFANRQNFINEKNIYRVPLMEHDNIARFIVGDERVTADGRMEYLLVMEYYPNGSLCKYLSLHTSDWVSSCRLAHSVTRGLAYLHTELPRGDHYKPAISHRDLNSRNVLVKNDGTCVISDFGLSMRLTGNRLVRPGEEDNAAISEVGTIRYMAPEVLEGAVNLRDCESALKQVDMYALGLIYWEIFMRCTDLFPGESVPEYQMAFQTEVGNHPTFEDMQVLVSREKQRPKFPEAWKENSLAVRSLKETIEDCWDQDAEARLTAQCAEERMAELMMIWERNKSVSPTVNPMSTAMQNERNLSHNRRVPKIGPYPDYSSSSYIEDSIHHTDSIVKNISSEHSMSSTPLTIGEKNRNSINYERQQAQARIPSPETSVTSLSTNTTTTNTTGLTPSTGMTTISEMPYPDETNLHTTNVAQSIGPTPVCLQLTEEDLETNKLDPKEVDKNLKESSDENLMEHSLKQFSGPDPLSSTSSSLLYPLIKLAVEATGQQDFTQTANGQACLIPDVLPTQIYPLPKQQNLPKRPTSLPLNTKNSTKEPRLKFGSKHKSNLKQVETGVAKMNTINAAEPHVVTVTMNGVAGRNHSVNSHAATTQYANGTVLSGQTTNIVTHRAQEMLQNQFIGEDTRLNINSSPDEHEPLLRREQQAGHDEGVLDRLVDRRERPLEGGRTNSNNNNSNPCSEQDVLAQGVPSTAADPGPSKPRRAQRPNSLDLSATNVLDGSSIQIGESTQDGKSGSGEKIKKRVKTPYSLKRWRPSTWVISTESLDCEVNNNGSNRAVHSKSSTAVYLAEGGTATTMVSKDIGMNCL

[4] = molecular target: Homeodomain-interacting protein kinase 2 (Homo sapiens) (UniProt Q9H2X6)
Sequence of Homeodomain-interacting protein kinase 2 (Homo sapiens) (Q9H2X6 whole entry, looked up): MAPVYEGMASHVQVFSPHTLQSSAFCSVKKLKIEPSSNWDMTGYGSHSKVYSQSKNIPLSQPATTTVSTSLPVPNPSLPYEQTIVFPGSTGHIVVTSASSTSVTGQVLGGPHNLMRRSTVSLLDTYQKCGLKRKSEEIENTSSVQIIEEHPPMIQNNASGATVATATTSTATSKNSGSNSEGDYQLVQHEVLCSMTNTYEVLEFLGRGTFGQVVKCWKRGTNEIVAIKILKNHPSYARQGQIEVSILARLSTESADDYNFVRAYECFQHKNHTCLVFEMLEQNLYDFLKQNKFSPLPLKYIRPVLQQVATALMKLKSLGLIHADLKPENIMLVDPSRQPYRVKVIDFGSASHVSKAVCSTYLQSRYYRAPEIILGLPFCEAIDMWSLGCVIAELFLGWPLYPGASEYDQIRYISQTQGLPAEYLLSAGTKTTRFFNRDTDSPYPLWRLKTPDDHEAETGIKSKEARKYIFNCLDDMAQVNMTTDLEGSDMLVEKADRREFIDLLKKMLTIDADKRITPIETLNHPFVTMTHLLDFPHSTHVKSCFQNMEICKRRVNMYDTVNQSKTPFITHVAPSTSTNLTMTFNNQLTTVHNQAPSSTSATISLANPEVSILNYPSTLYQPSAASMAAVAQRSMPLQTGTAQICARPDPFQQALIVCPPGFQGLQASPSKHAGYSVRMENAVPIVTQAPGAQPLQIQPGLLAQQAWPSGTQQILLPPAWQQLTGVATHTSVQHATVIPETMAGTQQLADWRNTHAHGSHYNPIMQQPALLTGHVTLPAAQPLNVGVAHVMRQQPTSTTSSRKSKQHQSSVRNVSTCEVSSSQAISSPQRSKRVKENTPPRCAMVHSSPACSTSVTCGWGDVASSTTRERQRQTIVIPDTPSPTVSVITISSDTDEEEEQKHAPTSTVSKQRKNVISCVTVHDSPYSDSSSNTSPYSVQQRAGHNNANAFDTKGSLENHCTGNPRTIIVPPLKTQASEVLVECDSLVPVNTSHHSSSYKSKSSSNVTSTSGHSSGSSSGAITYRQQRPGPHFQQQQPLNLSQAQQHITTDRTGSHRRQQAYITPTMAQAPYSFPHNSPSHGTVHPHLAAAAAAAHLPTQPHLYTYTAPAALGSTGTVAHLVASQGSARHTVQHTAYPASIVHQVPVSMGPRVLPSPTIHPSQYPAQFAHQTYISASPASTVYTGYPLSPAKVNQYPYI

[5] = molecular target: Calcium/calmodulin-dependent protein kinase type II subunit gamma (Homo sapiens) (UniProt Q13555)
[6] = molecular target: Mitogen-activated protein kinase kinase kinase kinase 1 (Homo sapiens) (UniProt Q92918)
Sequence of Mitogen-activated protein kinase kinase kinase kinase 1 (Homo sapiens) (Q92918 whole entry, looked up): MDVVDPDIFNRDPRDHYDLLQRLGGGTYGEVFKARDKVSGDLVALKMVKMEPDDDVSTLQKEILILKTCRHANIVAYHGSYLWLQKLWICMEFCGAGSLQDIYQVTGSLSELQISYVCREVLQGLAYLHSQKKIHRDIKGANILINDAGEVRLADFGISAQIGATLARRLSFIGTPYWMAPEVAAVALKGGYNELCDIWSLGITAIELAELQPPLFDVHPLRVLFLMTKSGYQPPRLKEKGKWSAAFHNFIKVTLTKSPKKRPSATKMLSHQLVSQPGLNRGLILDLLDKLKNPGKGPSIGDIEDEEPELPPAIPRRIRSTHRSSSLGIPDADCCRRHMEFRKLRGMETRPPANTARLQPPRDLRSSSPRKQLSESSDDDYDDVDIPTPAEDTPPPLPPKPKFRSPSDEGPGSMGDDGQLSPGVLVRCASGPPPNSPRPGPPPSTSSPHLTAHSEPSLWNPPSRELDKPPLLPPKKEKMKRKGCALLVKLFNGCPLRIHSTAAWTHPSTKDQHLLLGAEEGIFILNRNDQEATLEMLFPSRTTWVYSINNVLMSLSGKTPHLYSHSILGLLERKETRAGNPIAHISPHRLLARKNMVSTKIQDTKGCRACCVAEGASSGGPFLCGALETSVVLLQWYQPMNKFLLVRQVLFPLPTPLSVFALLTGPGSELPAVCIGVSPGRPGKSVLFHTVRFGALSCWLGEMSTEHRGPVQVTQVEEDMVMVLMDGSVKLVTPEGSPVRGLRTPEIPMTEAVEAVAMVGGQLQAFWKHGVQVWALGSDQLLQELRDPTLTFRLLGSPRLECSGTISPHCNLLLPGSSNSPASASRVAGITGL

[7] = molecular target: T2, Serine/threonine-protein kinase D3 (Homo sapiens) (UniProt O94806)
T2 sequence (whole entry): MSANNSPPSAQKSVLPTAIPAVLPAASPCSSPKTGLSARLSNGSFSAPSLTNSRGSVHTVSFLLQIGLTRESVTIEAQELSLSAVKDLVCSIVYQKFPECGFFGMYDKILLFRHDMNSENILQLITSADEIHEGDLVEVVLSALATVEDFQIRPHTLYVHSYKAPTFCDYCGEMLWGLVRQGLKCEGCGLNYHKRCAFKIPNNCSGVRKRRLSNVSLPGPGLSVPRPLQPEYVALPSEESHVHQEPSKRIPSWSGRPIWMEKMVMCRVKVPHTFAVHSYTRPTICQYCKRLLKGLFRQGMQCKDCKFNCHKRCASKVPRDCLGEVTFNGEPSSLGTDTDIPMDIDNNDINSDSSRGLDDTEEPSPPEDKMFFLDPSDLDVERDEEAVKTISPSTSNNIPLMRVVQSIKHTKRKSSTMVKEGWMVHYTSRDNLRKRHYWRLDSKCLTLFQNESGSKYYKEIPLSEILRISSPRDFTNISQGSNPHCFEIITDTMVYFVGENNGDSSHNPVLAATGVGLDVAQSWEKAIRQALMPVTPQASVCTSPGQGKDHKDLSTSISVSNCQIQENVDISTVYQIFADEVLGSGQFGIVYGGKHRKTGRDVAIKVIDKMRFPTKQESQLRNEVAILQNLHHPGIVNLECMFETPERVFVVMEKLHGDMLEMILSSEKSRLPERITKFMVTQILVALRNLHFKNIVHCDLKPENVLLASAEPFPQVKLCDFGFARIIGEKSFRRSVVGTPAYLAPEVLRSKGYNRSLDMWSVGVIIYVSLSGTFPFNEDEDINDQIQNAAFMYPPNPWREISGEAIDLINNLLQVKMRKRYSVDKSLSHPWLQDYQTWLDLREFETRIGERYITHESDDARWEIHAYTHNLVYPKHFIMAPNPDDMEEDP

[8] = molecular target: Serine/threonine-protein kinase 10 (Homo sapiens) (UniProt O94804)
Sequence of Serine/threonine-protein kinase 10 (Homo sapiens) (O94804 whole entry, looked up): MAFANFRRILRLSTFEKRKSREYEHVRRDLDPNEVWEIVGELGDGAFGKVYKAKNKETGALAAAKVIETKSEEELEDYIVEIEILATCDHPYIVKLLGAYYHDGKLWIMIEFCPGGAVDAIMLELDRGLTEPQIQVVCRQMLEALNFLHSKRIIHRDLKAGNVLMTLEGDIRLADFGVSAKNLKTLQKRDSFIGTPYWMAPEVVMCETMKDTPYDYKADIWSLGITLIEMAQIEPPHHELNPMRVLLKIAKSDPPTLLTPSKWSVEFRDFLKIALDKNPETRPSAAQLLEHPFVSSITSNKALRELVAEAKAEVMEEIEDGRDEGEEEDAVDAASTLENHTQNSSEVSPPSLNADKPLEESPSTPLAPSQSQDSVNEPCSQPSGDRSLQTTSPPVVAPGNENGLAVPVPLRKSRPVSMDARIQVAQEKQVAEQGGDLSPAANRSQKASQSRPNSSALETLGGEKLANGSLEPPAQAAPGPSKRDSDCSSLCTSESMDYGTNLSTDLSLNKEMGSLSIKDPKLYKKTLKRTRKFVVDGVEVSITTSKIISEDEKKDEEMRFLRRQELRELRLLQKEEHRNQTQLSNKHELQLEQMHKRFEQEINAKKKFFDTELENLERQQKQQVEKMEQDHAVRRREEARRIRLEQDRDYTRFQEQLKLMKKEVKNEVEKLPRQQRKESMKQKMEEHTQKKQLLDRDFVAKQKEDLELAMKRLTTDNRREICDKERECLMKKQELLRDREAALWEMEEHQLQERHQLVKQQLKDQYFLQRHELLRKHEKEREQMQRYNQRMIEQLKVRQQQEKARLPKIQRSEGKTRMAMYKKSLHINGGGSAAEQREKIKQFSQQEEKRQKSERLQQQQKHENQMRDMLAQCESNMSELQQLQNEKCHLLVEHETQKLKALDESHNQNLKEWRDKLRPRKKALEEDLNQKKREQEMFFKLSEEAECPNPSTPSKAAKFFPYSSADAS

[9] = molecular target: Fibroblast growth factor receptor 3 (Homo sapiens) (UniProt P22607)
Sequence of Fibroblast growth factor receptor 3 (Homo sapiens) (P22607 23-806 limits assumed): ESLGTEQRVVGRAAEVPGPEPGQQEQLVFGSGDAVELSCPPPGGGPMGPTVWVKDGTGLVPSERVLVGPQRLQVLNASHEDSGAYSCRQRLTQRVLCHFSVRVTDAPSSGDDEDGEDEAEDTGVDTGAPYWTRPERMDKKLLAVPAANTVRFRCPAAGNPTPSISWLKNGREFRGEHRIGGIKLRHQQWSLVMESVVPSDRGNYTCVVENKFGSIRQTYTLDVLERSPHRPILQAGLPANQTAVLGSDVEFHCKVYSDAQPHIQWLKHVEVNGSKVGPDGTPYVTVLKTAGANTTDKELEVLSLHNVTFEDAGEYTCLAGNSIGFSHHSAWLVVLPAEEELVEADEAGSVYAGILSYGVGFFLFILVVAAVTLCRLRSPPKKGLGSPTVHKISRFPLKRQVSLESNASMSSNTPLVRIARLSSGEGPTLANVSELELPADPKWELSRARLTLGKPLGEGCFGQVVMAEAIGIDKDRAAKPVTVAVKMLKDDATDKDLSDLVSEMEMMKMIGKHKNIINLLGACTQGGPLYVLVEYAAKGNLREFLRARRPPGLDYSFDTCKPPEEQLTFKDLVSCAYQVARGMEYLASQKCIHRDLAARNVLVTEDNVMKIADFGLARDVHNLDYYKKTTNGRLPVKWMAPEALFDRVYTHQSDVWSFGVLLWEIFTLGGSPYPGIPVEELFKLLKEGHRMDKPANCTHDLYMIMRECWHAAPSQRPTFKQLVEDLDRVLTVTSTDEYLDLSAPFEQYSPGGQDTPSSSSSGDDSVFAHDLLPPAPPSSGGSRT

[10] = molecular target: Serine/threonine-protein kinase MRCK alpha (Homo sapiens) (UniProt Q5VT25)

Measured: % residual kinase activity

Sequence of Testis-specific serine/threonine-protein kinase 4 (Homo sapiens) (Q6SA08 whole entry): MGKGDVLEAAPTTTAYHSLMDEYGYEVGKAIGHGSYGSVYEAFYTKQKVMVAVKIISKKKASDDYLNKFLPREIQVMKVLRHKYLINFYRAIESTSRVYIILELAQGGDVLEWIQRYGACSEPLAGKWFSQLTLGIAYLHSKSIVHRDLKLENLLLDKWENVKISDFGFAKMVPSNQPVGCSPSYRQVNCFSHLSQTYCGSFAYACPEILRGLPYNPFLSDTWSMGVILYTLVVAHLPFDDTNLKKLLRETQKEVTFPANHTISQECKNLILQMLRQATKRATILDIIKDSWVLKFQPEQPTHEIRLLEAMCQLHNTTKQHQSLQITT

CN1CCN(c2cnc3c(C4CCN(C(=O)c5ccc(OC(F)(F)F)cc5N)CC4)ncnc3c2)CC1 [BAY-885]
inactive: [1] 107% | [2] 115% | [3] 100% | [4] 107% | [5] 93% | [6] 106% | [7] 100% | [8] 114% | [9] 106% | [10] 111%
